Key:
[1] = biological target: T1, human CRTh2 (Homo sapiens, UniProt Q9Y5Y4); test: CRTh2 [3H]-PGD2 binding assay (filtration protocol; called SPA binding assay); settings: competition with [3H]-PGD2 (2.5 nM), CHO.K1-CRTh2 membranes
T1 construct: expressed in transfected cells; host or cells: CHO.K1 (Chinese Hamster Ovary) cells expressing human CRTh2; membrane preparation
T1 sequence (Q9Y5Y4 1-395): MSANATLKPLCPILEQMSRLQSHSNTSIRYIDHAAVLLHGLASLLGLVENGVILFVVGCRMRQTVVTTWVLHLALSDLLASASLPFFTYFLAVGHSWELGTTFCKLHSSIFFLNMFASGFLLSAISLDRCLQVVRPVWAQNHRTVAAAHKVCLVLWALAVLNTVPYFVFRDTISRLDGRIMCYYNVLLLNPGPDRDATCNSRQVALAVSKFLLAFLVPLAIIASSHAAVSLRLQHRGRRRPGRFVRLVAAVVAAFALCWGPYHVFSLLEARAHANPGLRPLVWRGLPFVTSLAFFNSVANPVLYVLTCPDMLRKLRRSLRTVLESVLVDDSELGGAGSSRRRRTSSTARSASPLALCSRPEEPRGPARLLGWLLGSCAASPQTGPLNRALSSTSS
Experimental: Filtration Binding Assay Protocol
The binding of CRTh2 modulators is determined using membranes prepared from human CRTh2-expressing Chinese Hamster Ovary cells (CHO.K1-CRTh2). To produce cell membranes CHO.K1-CRTh2 cells cultured in roller bottles are harvested using cell dissociation buffer (Invitrogen). The cells are pelleted by centrifugation (167 g, 5 min). The cell pellet is incubated in hypotonic buffer (15 mM Tris-OH, 2 mM MgCl2, 0.3 mM EDTA, 1 mM EGTA, 1× Complete™ tablet) at 4° C. for 30 min. At 4° C. cells are homogenized using a Polytron® (IKA Ultra Turrax T25) for 5 bursts of 1 second. The homogenate is centrifuged (Beckman Optima™ TL Ultracentrifuge, 48000 g, 30 min at 4° C.). The supernatant is discarded and the membrane pellet resuspended in homogenisation buffer (75 mM Tris-OH, 12.5 mM MgCl2, 0.3 mM EDTA, 1 mM EGTA, 250 mM Sucrose, 1× Complete™ tablet. Membrane preparations are aliquoted and stored at […]. The protein content is estimated using Bradford Protein Assay Dye (Bio Rad).
The binding of [^3H]-PGD2 (157 Ci/mmol) to CHO.K1-CRTh2 membranes is determined in the absence (total binding) and presence (non-specific binding) of unlabelled PGD2 (1 μM). Subtraction of the cpm (counts per minute) of [^3H]-PGD2 binding in presence of excess unlabelled PGD2 from that observed in the absence of excess unlabelled PGD2 is defined as specific binding. Active CRTh2 modulators are able to compete with [^3H]-PGD2 for binding to the CRTh2 receptor and are identified in a decrease in the number of cpm bound. […]
The plates are incubated at room temperature on a shaker for 1 hour, and then harvested (Tomtec Harvester 9600) onto GF/C filter plates using wash buffer (10 mM HEPES-KOH, pH 7.4). […] Plates are then counted using a Packard Top Count instrument, Plates are then read on the Packard Topcount with the 3H Scintillation program (1 min per well).
Ki (dissocation constant for the inhibition) values for the CRTh2 modulators are reported. Ki values are determined using Sigma Plot™ software, using the Cheng-Prussoff equation. […]

[2] = biological target: T2, CRTh2 receptor in CHO.K1-CRTh2 cells (Homo sapiens, UniProt Q9Y5Y4); test: CRTH2 cAMP functional assay; type: cell-based; settings: inhibition of PGD2-mediated attenuation of forskolin-induced cAMP accumulation in CHO.K1-CRTh2 cells
T2 construct: expressed in transfected cells; host or cells: CHO.K1-CRTh2 cells (whole cells)
T2 sequence (Q9Y5Y4 1-395): T1 sequence (Q9Y5Y4 1-395)
Experimental: Ki (dissocation constant for the inhibition) values for the CRTh2 modulators are reported. Ki values are determined using Sigma Plot™ software, using the Cheng-Prussoff equation. Ki=IC50/1+[S]/Kd where S is the concentration of radioligand and Kd is the dissociation constant. CRTH2 cAMP Functional Assay Protocol
This assay is conducted in CHO.K1-CRTh2 cells. cAMP is generated in the cell by stimulating cells with 5 μM forskolin, an adenylate cyclase activator. PGD2 is added to activate the CRTh2 receptor which results in the attenuation of the forskolin-induced cAMP accumulation. Potential CRTh2 antagonists are tested for their ability to inhibit the PGD2-mediated attenuation of the forskolin-induced cAMP accumulation in CHO.K1-CRTh2 cells.
For each concentration value on the dose-response curve, test compounds are prepared in assay stimulation buffer (HBSS, 5 mM HEPES, 10 μM IBMX±0.1% human serum albumin) containing DMSO (3% vol/vol) and 5 μL/well is added to an assay plate (384 well white optiplate).
CHO.K1-CRTh2 cultured in tissue culture flasks are washed with PBS and harvested with dissociation buffer. Cells are washed with PBS and resuspended in stimulation buffer to a concentration of 0.4×10^6/mL and added to the assay plate (10 μL/well).
The assay plate is incubated at room temperature on a shaker for 15 minutes.
A mix of agonist (10 nM Prostaglandin D2) and 5 μM forskolin is prepared in assay stimulation buffer and added to the assay plate (5 μL/well).
In addition, a cAMP standard is serially diluted in assay stimulation buffer and added to separate empty wells on the assay plate (20 μL/well). The cAMP standard allows for the quantification of cAMP generated in CHO.K1-CRTH2 cells.
The assay plate is incubated at room temperature on a shaker for 60 minutes. […]
The assay plate is sealed with Topseal-S™ and incubated in the dark at room temperature on a shaker for 45 minutes. The plate is then counted using a Packard Fusion™ instrument. […]

| Compound | Ki [1] | IC50 [2] |
| --- | --- | --- |
| Cc1c(CC(=O)O)c2cc(F)ccc2n1Cc1ccc(S(C)(=O)=O)cc1C(F)(F)F [Example 2, [5-fluoro-(4-methanesulfonyl-2-trifluoromethyl-benzyl)-2-methyl-1H-indol-3-yl]-acetic acid] | 8 nM | 73 nM |
| Cc1c(CC(=O)O)c2cc(F)ccc2n1Cc1ccc(S(=O)(=O)N(C)C2CCCCC2)cc1 [Example 4, {1-[4-(Cyclohexyl-methyl-sulfamoyl)-benzyl]-5-fluoro-2-methyl-1H-indol-3-yl}-acetic acid] | 52 nM | 33 nM |
| Cc1c(CC(=O)O)c2cc(F)ccc2n1Cc1ccc(S(=O)(=O)N2CCCC2)cc1 [Example 5, {5-Fluoro-2-methyl-1-[4-(pyrrolidine-1-sulfonyl)-benzyl]-1H-indol-3-yl}-acetic acid] | 36 nM | 99 nM |

— US7888383B2, “Organic compounds” (Novartis AG, priority 2005, dated 2011)
